Experimental data reported in patent publication US6602865B1, “Pyridazino(4,5-b)(1,5)oxazepinone, -thiazepinone and -diazepinone compounds” (IVAX Drug Research Institute, Ltd., priority 1998, dated 2003).

These compounds were tested on AMPA (assay: AMPA-induced spreading depression of chick retina). Details: 20 μM.
Experimental: The AMPA antagonistic effect of the compounds was also tested on spreading depression of chick retina (Sheardown, M. J.: Brain Res., 1993, 607, 189) in a concentration of 20 μM.
With Cn1ncc2c(c1=O)SCCNC2C(=O)c1ccccc1 (stereo not shown) [Example 3, 5-Benzoyl-8-methyl-2,3,4,5-tetrahydro-9(8H)-pyridazino[4,5-b][1,5]thiazepinone] the “Antagonistic effect on AMPA-induced spreading depression (%)” value (shortened to “Antagonistic effect … (%)”) was 10%. Cn1ncc2c(c1=O)OCCNC2Cc1ccccc1 (stereo not shown) [Example 4, 5-Benzyl-8-methyl-2,3,4,5-tetrahydro-9(8H)-pyridazino[4,5-b][1,5]oxazepinone] was tested, and the “Antagonistic effect … (%)” value was 17%. For O=c1c2c(cnn1CC=Cc1ccccc1)N(Cc1ccccc1)CCCO2 [Example 7, 5-Benzyl-8-cynnamyl-2,3,4,5-tetrahydro-9(8H)-pyridazino[4,5-b][1,5]oxazepinone], the “Antagonistic effect … (%)” value was 16%. Cn1ncc2c(c1=O)SCCNC2Cc1ccccc1 (stereo not shown) [Example 11, 5-Benzyl-8-methyl-2,3,4,5-tetrahydro-9(8H)-pyridazino[4,5-b][1,5]thiazepinone] was tested, and the “Antagonistic effect … (%)” value was 28%. For Cn1ncc2c(c1=O)SCCNC2Cc1ccc(Cl)cc1 (stereo not shown) [Example 12, 5-(4-Chlorobenzyl)-8-methyl-2,3,4,5-tetrahydro-9(8H)-pyridazino[4,5-b]-[1,5]thiazepinone], the “Antagonistic effect … (%)” value was 32%. In the case of O=c1c2c(cnn1-c1ccccc1)C(Cc1ccccc1)NCCS2 (stereo not shown) [Example 13, 5-Benzyl-8-phenyl-2,3,4,5-tetrahydro-9(8H)-pyridazino[4,5-b]-[1,5]thiazepinone], the “Antagonistic effect … (%)” value is reported as 48%.

These compounds were tested on scopolamine-induced memory-deficit in rats (assay: Passive avoidance test, scopolamine-induced memory deficit in rats). Details: oral dose 50 mg/kg.
Format: in vivo, rat
Experimental: The memory-enhancing effect of the compounds according to the invention was measured by counter-balancing the scopolamine-induced memory-deficit in rats, with oral doses of 50 mg/kg, in the passive avoidance test published by Cumin, R. et al. [Psychopharmacology, 78, 104 (1982)].
In the case of O=c1c2c(cnn1CC=Cc1ccccc1)N(Cc1ccccc1)CCCO2 [Example 7, 5-Benzyl-8-cynnamyl-2,3,4,5-tetrahydro-9(8H)-pyridazino[4,5-b][1,5]oxazepinone], the “Memory improvement compared to amnesic control (%)” value is reported as 250%.
